Reference: US20260356851A1, “TRICYCLIC COMPOUNDS AND USES THEREOF” (HUTCHMED LIMITED, priority 2023, published 2026)
pIC50: −log10 of the molar value. Like-named read-outs stand apart in the source and are kept apart here.

How the values were obtained:
Assay type in all cases: cell-based
[1] = target: T1, pERK1/2 (Thr202/Tyr204), NCI-1H441 (KRAS G12V) (Homo sapiens, UniProt P01116, G12V); assay: Assay of intracellular pERK1/2 (Thr202/Tyr204) phosphorylation in NCI-H441 cells (KRAS G12V)
T1 construct: pERK1/2 HTRF read-out
T1 sequence (P01116 1-188 isoform P01116-2 G12V): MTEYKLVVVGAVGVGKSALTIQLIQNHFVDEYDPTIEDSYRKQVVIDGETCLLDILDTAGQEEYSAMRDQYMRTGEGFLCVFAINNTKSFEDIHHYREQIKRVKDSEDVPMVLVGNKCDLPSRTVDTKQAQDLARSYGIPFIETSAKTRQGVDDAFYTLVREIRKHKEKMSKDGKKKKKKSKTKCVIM
Summary of the method: (§1)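 Cells (10000-12000/well) exposed to 3-fold compound dilutions for 2 days at 37 °C, then lysed; pERK1/2 (Thr202/Tyr204) measured by HTRF with d2 and cryptate antibodies, 665/615 nm ratio.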

[2] = target: T2, pERK1/2 (Thr202/Tyr204), NCI-1H358 (KRAS G12C) (Homo sapiens, UniProt P01116, G12C); assay: Assay of intracellular pERK1/2 (Thr202/Tyr204) phosphorylation in NCI-H358 cells (KRAS G12C)
T2 construct: pERK1/2 HTRF read-out
T2 sequence (P01116 1-188 isoform P01116-2 G12C): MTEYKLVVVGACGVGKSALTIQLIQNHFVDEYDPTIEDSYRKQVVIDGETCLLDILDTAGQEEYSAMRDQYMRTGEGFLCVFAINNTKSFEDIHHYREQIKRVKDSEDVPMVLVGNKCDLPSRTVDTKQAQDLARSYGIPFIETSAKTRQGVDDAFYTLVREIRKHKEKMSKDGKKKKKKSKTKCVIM
Summary of the method: as §1

[3] = target: T3, pERK1/2 (Thr202/Tyr204), PANC-1 (KRAS G121D) (Homo sapiens, UniProt P01116, G12D); assay: Assay of intracellular pERK1/2 (Thr202/Tyr204) phosphorylation in PANC-1 cells (KRAS G12D)
T3 construct: pERK1/2 HTRF read-out
T3 sequence (P01116 1-188 isoform P01116-2 G12D): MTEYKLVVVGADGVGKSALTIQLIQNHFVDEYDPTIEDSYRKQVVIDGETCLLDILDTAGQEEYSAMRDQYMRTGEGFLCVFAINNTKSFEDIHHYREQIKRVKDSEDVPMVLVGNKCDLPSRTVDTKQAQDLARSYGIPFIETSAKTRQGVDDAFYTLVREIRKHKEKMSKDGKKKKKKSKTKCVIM
Summary of the method: as §1

[4] = pERK1/2, 2 days, read-out: NCI-H441 (KRAS G12V) IC50
[5] = pERK1/2, 2 days, read-out: NCI-H358 (KRAS G12C) IC50
[6] = pERK1/2, 2 days, read-out: PANC-1 (KRAS G12D) IC50

pIC50 [1, 4] | pIC50 [2, 5] | pIC50 [3, 6] | pIC50 ([1]; read-out: NCI-H441 (KRAS G12V) IC50, pERK1/2, 2 days) | pIC50 ([2]; read-out: NCI-H358 (KRAS G12C) IC50, pERK1/2, 2 days) | pIC50 ([3]; read-out: PANC-1 (KRAS G12D) IC50, pERK1/2, 2 days) | SMILES
< 7.00 | < 7.00 | < 7.00 | – | – | – | CC(c1cccnc1N)N1c2nc(OC[C@@]34CCCN3C[C@H](F)C4)nc3c(F)c(-c4c(C(F)(F)F)ccc5c4CCCN5)nc(c23)OC[C@@H]1C (single isomer, unassigned; diastereomer 2) [Compound 339, (*)3-(1-((5R or 5S,9S)-4-fluoro-2-(((2R,7aS)-2-fluorotetrahydro-1H-pyrrolizin-7a(5H)-yl)methoxy)-9-methyl-5-(6-(trifluoromethyl)-1,2,3,4-tetrahydroquinolin-5-yl)-8,9-dihydro-10H-7-oxa-1,3,6,10-tetraazacyclohepta[de]naphthalen-10-yl)ethyl)pyridin-2-amine (diastereomer 2)]
– | – | – | 8.52 | 9.15 | 8.22 | CC(c1cccnc1N)N1CCOc2nc(-c3cc(O)cc4ccc(F)c(F)c34)c(F)c3nc(OC[C@@]45CCCN4C[C@H](F)C5)nc1c23 (stereo partly drawn) [Compound 1, 4-(10-(1-(2-Aminopyridin-3-yl)ethyl)-4-fluoro-2-(((2R,7aS)-2-fluorotetrahydro-1H-pyrrolizin-7a(5H)-yl)methoxy)-9,10-dihydro-8H-7-oxa-1,3,6,10-tetraazacyclohepta[de]naphthalen-5-yl)-5,6-difluoronaphthalen-2-ol]
7.38 | 8.05 | 6.49 | – | – | – | Cc1cc2[nH]ncc2c(-c2nc3c4c(nc(OC[C@@]56CCCN5C[C@H](F)C6)nc4c2F)N(C(C)c2cccnc2N)CCO3)c1C (stereo partly drawn) [Compound 2, 3-(1-(5-(5,6-Dimethyl-1H-indazol-4-yl)-4-fluoro-2-(((2R,7aS)-2-fluorotetrahydro-1H-pyrrolizin-7a(5H)-yl)methoxy)-8,9-dihydro-1OH-7-oxa-1,3,6,10-tetraazacyclohepta[de]naphthalen-10-yl)ethyl)pyridin-2-amine]
< 6.00 | < 6.00 | < 6.00 | – | – | – | Cc1cc2[nH]ncc2c(-c2nc3c4c(nc(O)nc4c2F)N(C(C)c2cccnc2N)CCO3)c1C (stereo not drawn) [Compound 3, 10-(1-(2-Aminopyridin-3-yl)ethyl)-5-(5,6-dimethyl-1H-indazol-4-yl)-4-fluoro-9,10-dihydro-8H-7-oxa-1,3,6,10-tetraazacyclohepta[de]naphthalen-2-ol]
8.70 | 9.00 | 8.00 | – | – | – | CC(c1cccnc1N)N1CCOc2nc(-c3cc(O)cc(Cl)c3C3CC3)c(F)c3nc(OC[C@@]45CCCN4C[C@H](F)C5)nc1c23 (stereo partly drawn) [Compound 4]
< 6.00 | 6.15 | < 6.00 | – | – | – | Cc1cc2[nH]ncc2c(-c2nc3c4c(nc(OCC5(CN(C)C)CC5)nc4c2F)N(C(C)c2cccnc2N)CCO3)c1C (stereo not drawn) [Compound 5]
7.77 | 8.40 | 6.87 | – | – | – | CC(c1cccnc1N)N1CCOc2nc(-c3cc(O)cc4ccc(F)c(F)c34)c(F)c3nc(OC[C@@H]4CCCN4C)nc1c23 (stereo partly drawn) [Compound 6]
7.48 | 8.10 | 6.62 | – | – | – | CC(c1cccnc1N)N1CCOc2nc(-c3cc(O)cc4ccc(F)c(F)c34)c(F)c3nc(OCC4(CN(C)C)CC4)nc1c23 (stereo not drawn) [Compound 7]
8.70 | 9.00 | 6.95 | – | – | – | CC(c1cccnc1N)N1CCOc2nc(-c3cc(O)cc4ccc(F)c(F)c34)c(F)c3nc(OC[C@@H]4CCN4CC(F)F)nc1c23 (stereo partly drawn) [Compound 8]
< 6.00 | < 6.00 | < 6.00 | – | – | – | CC(c1cccnc1N)N1CCOc2nc(-c3cc(O)cc4ccc(F)c(F)c34)c(F)c3nc(O)nc1c23 (stereo not drawn) [Compound 9]
6.10 | 6.82 | < 6.00 | – | – | – | CCOc1nc2c3c(nc(-c4cc(O)cc5ccc(F)c(F)c45)c(F)c3n1)OCCN2C(C)c1cccnc1N (stereo not drawn) [Compound 10]
9.00 | 9.00 | 8.40 | – | – | – | CC(c1cccnc1N)N1CCOc2nc(-c3cc(O)cc4ccc(F)c(F)c34)c(F)c3nc(OC[C@@]45CCCN4C/C(=C\F)C5)nc1c23 (stereo partly drawn) [Compound 11]
6.72 | 7.27 | < 6.00 | – | – | – | CC(c1cccnc1N)N1CCOc2nc(-c3cc(O)cc4ccc(F)c(F)c34)c(F)c3nc(OC[C@H]4COCCN4)nc1c23 (stereo partly drawn) [Compound 12]
6.61 | 6.86 | < 6.00 | – | – | – | CC(c1cccnc1N)N1CCOc2nc(-c3cc(O)cc4ccc(F)c(F)c34)c(F)c3nc(OC[C@@H]4COCCN4)nc1c23 (stereo partly drawn) [Compound 13]
7.44 | 7.72 | < 6.00 | – | – | – | Cc1cc2[nH]ncc2c(-c2nc3c4c(nc(OC[C@@H]5CCN5CC(F)F)nc4c2F)N(C(C)c2cccnc2N)CCO3)c1C (stereo partly drawn) [Compound 14]
7.77 | 8.70 | 6.76 | – | – | – | CC(c1cccnc1N)N1CCOc2nc(-c3c(C(F)(F)F)ccc4[nH]ncc34)c(F)c3nc(OC[C@@]45CCCN4C[C@H](F)C5)nc1c23 (stereo partly drawn) [Compound 15]
8.30 | 8.70 | 6.82 | – | – | – | CC(c1cccnc1N)N1CCOc2nc(-c3cc(O)cc(Cl)c3C3CC3)c(F)c3nc(OC[C@@H]4CCN4CC(F)F)nc1c23 (stereo partly drawn) [Compound 16]
6.97 | 7.54 | < 6.00 | – | – | – | CC(c1cccnc1N)N1CCOc2nc(-c3cccc4sc(N)nc34)c(F)c3nc(OC[C@@H]4CCN4CC(F)F)nc1c23 (stereo partly drawn) [Compound 17]

pIC50 [1, 4] | pIC50 [2, 5] | pIC50 [3, 6] | pIC50 ([1]; read-out: NCI-H441 (KRAS G12V) IC50, pERK1/2, 2 days) | pIC50 ([2]; read-out: NCI-H358 (KRAS G12C) IC50, pERK1/2, 2 days) | pIC50 ([3]; read-out: PANC-1 (KRAS G12D) IC50, pERK1/2, 2 days) | SMILES
8.52 | 9.00 | 7.27 | – | – | – | CC(c1cccnc1N)N1CCOc2nc(-c3cc(N)ccc3C(F)(F)F)c(F)c3nc(OC[C@@]45CCCN4C[C@H](F)C5)nc1c23 (stereo partly drawn) [Compound 18]
7.18 | 7.82 | < 6.00 | – | – | – | CC(c1cccnc1N)N1CCOc2nc(-c3ccc(F)c4sc(N)nc34)c(F)c3nc(OC[C@@H]4CCN4CC(F)F)nc1c23 (stereo partly drawn) [Compound 19]
6.98 | 7.42 | 6.41 | – | – | – | CC(c1cccnc1N)N1CCOc2nc(-c3cc(O)cc4ccc(F)c(F)c34)c(F)c3ncnc1c23 (stereo not drawn) [Compound 22]
7.85 | 8.15 | 6.23 | – | – | – | CC(c1cccnc1N)N1CCOc2nc(-c3c(C(F)(F)F)ccc4[nH]ncc34)c(F)c3nc(OC[C@@H]4CCN4CC(F)F)nc1c23 (stereo partly drawn) [Compound 25]
< 6.00 | 6.35 | < 6.00 | – | – | – | CC(c1cccnc1N)N1CCOc2nc(-c3nc(N)cc4ccccc34)c(F)c3nc(OC[C@@H]4CCCN4C)nc1c23 (stereo partly drawn) [Compound 28, 1-(10-(1-(2-aminopyridin-3-yl)ethyl)-4-fluoro-2-(((S)-1-methylpyrrolidin-2-yl)methoxy)-9,10-dihydro-8H-7-oxa-1,3,6,10-tetraazacyclohepta[de]naphthalen-5-yl)isoquinolin-3-amine]
6.92 | 6.71 | < 6.00 | – | – | – | CSc1nc2c3c(nc(-c4cc(O)cc5ccc(F)c(F)c45)c(F)c3n1)OCCN2C(C)c1cccnc1N (stereo not drawn) [Compound 33]
7.60 | 8.22 | 6.54 | – | – | – | CC(c1cccnc1N)N1CCOc2nc(-c3cc(N)ccc3C(F)(F)F)c(F)c3nc(OC[C@@H]4CCCN4C)nc1c23 (stereo partly drawn) [Compound 36]
7.59 | 7.96 | 6.07 | – | – | – | CC(c1cccnc1N)N1CCOc2nc(-c3cc(N)ccc3C(F)(F)F)c(F)c3nc(OC[C@@H]4CC(F)(F)CN4C)nc1c23 (stereo partly drawn) [Compound 37]
7.51 | 7.74 | 6.03 | – | – | – | CC(c1cccnc1N)N1CCOc2nc(-c3c(C(F)(F)F)ccc4[nH]ncc34)c(F)c3nc(OC[C@@H]4CC(F)(F)CN4C)nc1c23 (stereo partly drawn) [Compound 40]
7.28 | 7.42 | < 6.00 | – | – | – | CC(c1cccnc1N)N1CCOc2nc(-c3cc(O)cc(F)c3C3CC3)c(F)c3nc(OC[C@@H]4CC(F)(F)CN4C)nc1c23 (stereo partly drawn) [Compound 45]
8.30 | 8.40 | 6.54 | – | – | – | CC(c1cccnc1N)N1CCOc2nc(-c3cc(O)cc4ccc(F)c(F)c34)c(F)c3nc(OC[C@@H]4CC(F)(F)CN4C)nc1c23 (stereo partly drawn) [Compound 46]
< 6.00 | < 6.00 | 6.46 | – | – | – | COc1ccc(C(F)(F)F)cc1-c1nc2c3c(nc(OC[C@@]45CCCN4C[C@H](F)C5)nc3c1F)N(C(C)c1cccnc1N)CCO2 (stereo partly drawn) [Compound 47]
9.15 | 9.70 | 8.70 | – | – | – | Cc1cc(N)cc(-c2nc3c4c(nc(OC[C@@]56CCCN5C[C@H](F)C6)nc4c2F)N(C(C)c2cccnc2N)CCO3)c1C(F)(F)F (stereo partly drawn) [Compound 59]
6.09 | 6.29 | < 6.00 | – | – | – | C#Cc1ccc2[nH]ncc2c1-c1nc2c3c(nc(OC[C@@]45CCCN4C[C@H](F)C5)nc3c1F)N(C(C)c1cccnc1N)CCO2 (stereo partly drawn) [Compound 60]
9.30 | 9.40 | 8.70 | – | – | – | CC(c1cccnc1N)N1CCOc2nc(-c3cc(N)cc(Cl)c3C(F)(F)F)c(F)c3nc(OC[C@@]45CCCN4C[C@H](F)C5)nc1c23 (stereo partly drawn) [Compound 63]
8.70 | 9.22 | 7.64 | – | – | – | CC(c1cccnc1N)N1CCOc2nc(-c3cc(N)cc(Cl)c3C(F)(F)F)c(F)c3nc(OC[C@@H]4CCCN4C)nc1c23 (stereo partly drawn) [Compound 64]
8.70 | 9.00 | 7.59 | – | – | – | Cc1cc(N)cc(-c2nc3c4c(nc(OC[C@@H]5CCCN5C)nc4c2F)N(C(C)c2cccnc2N)CCO3)c1C(F)(F)F (stereo partly drawn) [Compound 65]
